These compounds were tested against human GSK3β (Homo sapiens, UniProt P49841) (assay: Screening for GSK3 inhibitory activity using a cell-free assay). Conditions: read-out: IC50 with respect to GSK3.
Format: biochemical
How it was run: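 Compounds in DMSO were tested against human GSK3β over a three-hour kinase reaction. Radiolabeled phosphate transferred to the peptide was captured on streptavidin plates after EDTA/ATP stop and quantified by scintillation counting. Signal was plotted versus compound concentration.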

Sequence of human GSK3β (P49841 whole entry): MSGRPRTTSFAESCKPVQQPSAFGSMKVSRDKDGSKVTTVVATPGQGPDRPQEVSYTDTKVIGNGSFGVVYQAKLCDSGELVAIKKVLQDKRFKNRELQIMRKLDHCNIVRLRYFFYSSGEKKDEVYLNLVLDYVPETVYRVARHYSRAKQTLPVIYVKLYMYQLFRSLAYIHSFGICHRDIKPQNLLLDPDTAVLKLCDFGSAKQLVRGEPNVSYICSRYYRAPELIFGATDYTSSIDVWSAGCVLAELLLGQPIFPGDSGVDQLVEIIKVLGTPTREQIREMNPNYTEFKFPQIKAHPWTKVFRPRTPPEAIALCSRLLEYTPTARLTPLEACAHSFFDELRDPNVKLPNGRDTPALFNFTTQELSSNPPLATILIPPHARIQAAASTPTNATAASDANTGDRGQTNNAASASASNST

Row | Structure (SMILES) | IC50
1 | COc1ccc(OC)c(CCNc2nccc(-c3ccc(C(=O)NCc4cccc(Br)c4)cc3)n2)c1 [[4-(2-{[2-(2,5-dimethoxyphenyl)ethyl]amino}pyrimidin-4-yl)phenyl]-N-[(3-bromophenyl)methyl]carboxamide] | ≤ 10000 nM
2 | Cc1cccc(CNC(=O)c2ccc(-c3ccnc(NCc4cccc(Br)c4)n3)cc2)c1 [[4-(2-{[(3-bromophenyl)methyl]amino}pyrimidin-4-yl)phenyl]-N-[(3-methylphenyl)methyl]carboxamide] | ≤ 10000 nM
3 | Fc1ccc(-c2ccnc(NCCNc3ccccn3)n2)cc1F [[4-(3,4-difluorophenyl)pyrimidin-2-yl][2-(2-pyridylamino)-ethyl]amine] | ≤ 10000 nM
4 | Cc1cnc(NCCNc2ccccn2)nc1-c1ccc(Cl)cc1 [[4-(4-chlorophenyl)-5-methylpyrimidin-2-yl][2-(2-pyridylamino)ethyl]amine] | ≤ 10000 nM
5 | Cc1cn(-c2ccccc2)nc1-c1ccnc(NCCNc2ccccn2)n1 [[4-(4-methyl-1-phenylpyrazol-3-yl)pyrimidin-2-yl][2-(2-pyridyl-amino)ethyl]amine] | ≤ 10000 nM
6 | O=[N+]([O-])c1ccc(-c2ccnc(NCCNc3ccccn3)n2)cc1 [[4-(4-nitrophenyl)pyrimidin-2-yl][2-(2-pyridylamino)ethyl]amine] | ≤ 10000 nM
7 | c1ccc(Cc2cnc(NCCNc3ccccn3)nc2-c2ccccc2)cc1 [[4-phenyl-5-benzyl-pyrimidin-2-yl][2-(2-pyridylamino)ethyl]amine] | ≤ 10000 nM
8 | O=[N+]([O-])c1ccc(NCCNc2ncc(-c3ccc(F)cc3)cn2)nc1 [[5-(4-fluorophenyl)pyrimidin-2-yl]{2-[(5-nitro(2-pyridyl))amino]ethyl}amine] | ≤ 10000 nM
9 | O=[N+]([O-])c1ccc(NCCNc2ncc(-n3cnc4ccccc43)c(-c3ccc(Cl)cc3Cl)n2)nc1 [[5-benzimidazolyl-4-(2,4-dichlorophenyl)pyrimidin-2-yl]{2-[(5-nitro-(2-pyridyl))amino]ethyl}amine] | ≤ 1000 nM
10 | O=[N+]([O-])c1ccc(NCCNc2ncc(-n3nnc4ccccc43)c(-c3ccc(Cl)cc3Cl)n2)nc1 [[5-benzotriazolyl-4-(2,4-dichlorophenyl)pyrimidin-2-yl]{2-[(5-nitro(2-pyridyl))amino]ethyl}amine] | ≤ 1000 nM
11 | O=[N+]([O-])c1ccc(NCCNc2ccc(-n3ccnc3)c(-c3ccc(Cl)cc3Cl)n2)nc1 [[6-(2,4-dichlorophenyl)-5-imidazolyl(2-pyridyl)]{2-[(5-nitro(2-pyridyl))amino]ethyl}amine] | ≤ 1000 nM
12 | O=[N+]([O-])c1ccc(NCCNc2nccc(NCc3cc(Cl)cc(Cl)c3)n2)nc1 [[(3,5-dichlorophenyl)methyl][2-({2-[(5-nitro(2-pyridyl))amino]ethyl}amino)pyrimidin-4-yl]amine] | ≤ 10000 nM
13 | O=[N+]([O-])c1ccc(NCCNc2nccc(-c3ccc(S(=O)(=O)NCc4cccc(Br)c4)cc3)n2)nc1 [[(3-bromophenyl)methyl]({4-[2-({2-[(5-nitro(2-pyridyl))amino]ethyl}-amino)pyrimidin-4-yl]phenyl}sulfonyl)amine] | ≤ 10000 nM
14 | O=[N+]([O-])c1ccc(NCCNc2nccc(NCc3cccc(Cl)c3)n2)nc1 [[(3-chlorophenyl)methyl][2-({2-[(5-nitro(2-pyridyl))-amino]ethyl}amino)pyrimidin-4-yl]amine] | ≤ 10000 nM
15 | Cc1cccc(CNc2ccnc(NCCNc3ccc([N+](=O)[O-])cn3)n2)c1 [[(3-methylphenyl)methyl][2-({2-[(5-nitro-(2-pyridyl))amino]ethyl}amino)pyrimidin-4-yl]amine] | ≤ 10000 nM
16 | O=[N+]([O-])c1ccc(NCCNc2nccc(NCc3ccc(Cl)cc3)n2)nc1 [[(4-chlorophenyl)methyl][2-({2-[(5-nitro(2-pyridyl))amino]ethyl}amino)pyrimidin-4-yl]amine] | ≤ 10000 nM
17 | O=S(=O)(NCc1ccccc1)c1ccc(-c2ccnc(NCCNc3ccccn3)n2)cc1 [benzyl{[4-(2-{[2-(2-pyridylamino)ethyl]-amino}pyrimidin-4-yl)phenyl]sulfonyl}amine] | ≤ 10000 nM
18 | CCCCOC(=O)c1cnc(NCCNc2ccc([N+](=O)[O-])cn2)nc1-c1ccc(C#N)cc1 [butyl 4-(4-cyanophenyl)-2-({2-[(5-nitro(2-pyridyl))amino]ethyl}amino)pyrimidine-5-carboxylate] | ≤ 1000 nM
19 | CCOC(=O)c1cnc(NCCNc2ncc(C#N)c(N)n2)nc1-c1ccc(C#N)cc1 [ethyl 2-({2-[(4-amino-5-cyanopyrimidin-2-yl)amino]ethyl}amino)-4-(4-cyanophenyl)pyrimidine-5-carboxylate] | ≤ 1000 nM

More lines, now with the values ahead:

Row | IC50 | Structure (SMILES)
20 | ≤ 1000 nM | O=[N+]([O-])c1ccc(NCCNc2ncc(-c3ncc[nH]3)c(-c3ccc(F)cc3Cl)n2)nc1 [[4-(2-chloro-4-fluorophenyl)-5-imidazol-2-ylpyrimidin-2-yl]{2-[(5-nitro(2-pyridyl))amino]ethyl}amine]
21 | ≤ 1000 nM | O=[N+]([O-])c1ccc(NCCNc2ncc(-c3ncc[nH]3)c(-c3ccc(Br)cc3Cl)n2)nc1 [[4-(4-bromo-2-chlorophenyl)-5-imidazol-2-ylpyrimidin-2-yl]{2-[(5-nitro(2-pyridyl))amino]ethyl}amine]
22 | ≤ 1000 nM | O=[N+]([O-])c1ccc(NCCNc2ncc(-c3ncc[nH]3)c(-c3ccc(Cl)cc3)n2)nc1 [[4-(4-chlorophenyl)-5-imidazol-2-ylpyrimidin-2-yl]{2-[(5-nitro(2-pyridyl))amino]ethyl}amine]
23 | ≤ 1000 nM | N#Cc1ccc(-c2nc(NCCNc3ccc([N+](=O)[O-])cn3)ncc2C(=O)NCc2ccncc2)cc1 [[4-(4-cyanophenyl)-2-({2-[(5-nitro(2-pyridyl))-amino]ethyl}amino)pyrimidin-5-yl]-N-(4-pyridylmethyl)carboxamide]
24 | ≤ 1000 nM | CN(C)C(=O)c1cnc(NCCNc2ccc([N+](=O)[O-])cn2)nc1-c1ccc(C#N)cc1 [[4-(4-cyanophenyl)-2-({2-[(5-nitro(2-pyridyl))amino]ethyl}-amino)pyrimidin-5-yl]-N,N-dimethylcarboxamide]
25 | ≤ 1000 nM | CNC(=O)c1cnc(NCCNc2ccc([N+](=O)[O-])cn2)nc1-c1ccc(C#N)cc1 [[4-(4-cyanophenyl)-2-({2-[(5-nitro(2-pyridyl))amino]ethyl}amino)-pyrimidin-5-yl]-N-methylcarboxamide]
26 | ≤ 1000 nM | N#Cc1ccc(-c2nc(NCCNc3ccc([N+](=O)[O-])cn3)ncc2C(=O)NCCO)cc1 [[4-(4-cyanophenyl)-2-({2-[(5-nitro(2-pyridyl))amino]ethyl}amino)pyrimidin-5-yl]-N-(2-hydroxyethyl)carboxamide]
27 | ≤ 1000 nM | N#Cc1ccc(-c2nc(NCCNc3ccc([N+](=O)[O-])cn3)ncc2C(=O)NCc2ccccc2)cc1 [[4-(4-cyanophenyl)-2-({2-[(5-nitro(2-pyridyl))amino]ethyl}amino)pyrimidin-5-yl]-N-benzylcarboxamide]
28 | ≤ 1000 nM | C/C(=N\c1cnc(NCCNc2ccc([N+](=O)[O-])c(N)n2)nc1-c1ccc(Cl)cc1Cl)N1CCOCC1 [[5-((1E)-1-aza-2-morpholin-4-ylprop-1-enyl)-4-(2,4-dichlorophenyl)pyrimidin-2-yl]{2-[(6-amino-5-nitro(2-pyridyl))amino]ethyl}amine]
29 | ≤ 1000 nM | Nc1cnc(NCCNc2ccc([N+](=O)[O-])c(N)n2)nc1-c1ccc(Cl)cc1Cl [[5-amino-4-(2,4-dichlorophenyl)pyrimidin-2-yl]{2-[(6-amino-5-nitro(2-pyridyl))amino]ethyl}amine]
